Consider 17 compounds from patent US10836769B2, “Substituted pyrrolizine compounds and uses thereof” (Gilead Sciences, Inc., priority 2018, dated 2020).

The term EC50 denotes the midpoint of the concentration-response curve. Usually kinetic solubility stands for the concentration staying in solution when a stock, usually in DMSO, is diluted into the medium.

Converted amounts (≈) assume the structure as drawn. Like-named read-outs stand apart in the source and are kept apart here. Where only a bound is given, the exact number is not on record here.

The subject of one series is HBV. Nature of the series: HBV DNA Quantification Assay. It counts as cell-based. As to conditions: Hepatitis B virus, 120 h; HepG2 cell line overexpressing NTCP infected with HBV AD38 viral particles; HBV DNA in culture supernatant after 5 days; geometric mean of a minimum of four determinations; read-out: EC50. On the procedure:
A HepG2 cell line overexpressing the HBV virus attachment receptor sodium-taurocholate cotransporting polypeptide (NTCP) was grown to confluency in DMEM growth medium, Dulbecco's Modified Eagle Medium without sodium pyruvate (Life Technologies, Rockville, Md.) supplemented with 10% FBS (Thermo Scientific, Waltham, Md.), 1% penicillin/streptomycin (Life Technologies, Rockville, Md.) and 2 mM L-glutamine (Life Technologies, Rockville, Md.) in T175 flasks. Cells were infected with HBV AD38 viral particles (Texcell, Frederick, USA) at 4000 genome equivalents per cell. After allowing viral infection to take place for 4 days, the infected cells were harvested from the flasks by trypsinization, washed twice with OptiMEM (Life Technologies, Rockville, Md.) and re-suspended in DMEM containing 2% FBS and 1% DMSO at a density of 0.25E6 cells/ml. Infected cells were seeded on 384 well collagen coated plates (Greiner, Austria) at a density of 20,000 cells/well containing serially diluted compounds of the present disclosure or DMSO (0.5%) in a final volume of 80 μl. The assay plates were incubated for a period of 5 days and the antiviral activity of the test compounds were assayed by detecting the presence of HBV DNA in the culture supernatant using the QuantiGene™ 2.0 nucleic acid quantification kit (Affymetrix, Santa Clara, Calif.).
The culture supernatant was harvested and treated with lysis buffer containing Proteinase K (Affymetrix, Santa Clara, Calif.). The supernatant was incubated with HBV viral DNA specific probes (Affymetrix, Santa Clara, Calif.) for 30 minutes at 55° C. This was followed by addition of 0.2M NaOH for 30 minutes at room temperature to denature the DNA, followed by addition of Neutralization buffer (Affymetrix, Santa Clara, Calif.). The resulting lysed and neutralized supernatant was then added to QuantiGene™ 2.0 384 well plates coated with capture oligonucleotides and incubated overnight at 55° C. The HBV specific probe set consists of Capture Extender oligonucleotides (CE's) and blocking probes. Following the overnight incubation, the wells were incubated for one hour sequentially with a Pre-Amplifier, Amplifier and Labeled probes conjugated to alkaline phosphatase with a wash step between incubations. After the final wash step, the alkaline phosphatase substrate (Luminol APS5) was added and the resulting luminescence signal was read in an EnVision Multilabel Plate Reader (PerkinElmer, Santa Clara, Calif.). The EC50 values were calculated from the fit of the dose-response curves to a four-parameter equation. All EC50 values represent geometric mean values of a minimum of four determinations.

A further series in a line: Kinetic Solubility. The class given is physicochemical. As to conditions: kinetic from dmso stock, 0.2 to 100 μM, BD Gentest Solubility Scanner. The protocol: The 10 mM DMSO stock solution of the test compound is serially diluted into a 96-well “DMSO stock dilution plate”. Then Pipette 2 μL from the DMSO stock dilution plate into the “Sample plate” and dilute with 198 µL of the assay media to generate the final concentrations of the test compound ranging from 0.2 to 100 μM. The “Sample plate” is run on a BD Gentest Solubility Scanner.

The mark [1] stands for this setting: aqueous buffer, pH = 7, read-out: Kinetic Solubility at pH = 7.
The mark [2] stands for this setting: simulated gastric fluid, pH = 1, read-out: Kinetic Solubility at pH = 1.

For the compound `CNC(=O)C1(NC(=O)C(=O)c2c(C)c(C(=O)Nc3ccc(F)c(F)c3)c3n2CCC3)CC(F)(F)C1` [Example 46], the EC50 in the series on HBV is 22.5 nM. Also, the solubility (kinetic) in “Kinetic Solubility” (setting [1]) was 88.5 µM (≈ 43.8 µg/mL); in “Kinetic Solubility” (setting [2]) it was 84.4 µM (≈ 41.7 µg/mL).
The matching figures for `CNC(=O)C1(NC(=O)C(=O)c2c(C)c(C(=O)Nc3ccc(F)c(F)c3)c3n2[C@H]2C[C@H]2C3)CC(F)(F)C1` [Example 24]: 177 nM, 87.1 µM (≈ 44.1 µg/mL) and 99.4 µM (≈ 50.3 µg/mL).
For `Cc1c(C(=O)Nc2cc(F)c(F)c(F)c2)c2n(c1C(=O)C(=O)NC1(c3cnn[nH]3)CC(F)(F)C1)CCC2` [Example 18], in the series with HBV, the EC50 came out at 2.4 nM. For the same compound, the solubility (kinetic) was 52.7 µM (≈ 27.5 µg/mL) in “Kinetic Solubility” (setting [1]) and 50 µM (≈ 26.1 µg/mL) in “Kinetic Solubility” (setting [2]).
The like results for `CNC(=O)C1(NC(=O)C(=O)c2c(C)c(C(=O)Nc3ccnc(C(F)F)c3F)c3n2CCC3)CC(F)(F)C1` [Example 20, 5-(2-((3,3-difluoro-1-(methylcarbamoyl)cyclobutyl)amino)-2-oxoacetyl)-N-(2-(difluoromethyl)-3-fluoropyridin-4-yl)-6-methyl-2,3-dihydro-1H-pyrrolizine-7-carboxamide] were, in that order, 503 nM, 28 µM (≈ 14.8 µg/mL) and 26.3 µM (≈ 13.9 µg/mL).
The like results for `CNC(=O)C1(NC(=O)C(=O)c2c(C)c(C(=O)Nc3ccc(F)c(F)c3)c3n2CCC3)COC1` [Example 38, N-(3,4-difluorophenyl)-6-methyl-5-(2-((3-(methylcarbamoyl)oxetan-3-yl)amino)-2-oxoacetyl)-2,3-dihydro-1H-pyrrolizine-7-carboxamide] were, in that order, 87.2 nM, 86.7 µM (≈ 39.9 µg/mL) and 88.7 µM (≈ 40.8 µg/mL).
`Cc1c(C(=O)Nc2ccc(F)c(F)c2)c2n(c1C(=O)C(=O)NC1(c3nncs3)CC(F)(F)C1)CCC2` [Example 3, 5-(2-((3,3-difluoro-1-(1,3,4-thiadiazol-2-yl)cyclobutyl)amino)-2-oxoacetyl)-N-(3,4-difluorophenyl)-6-methyl-2,3-dihydro-1H-pyrrolizine-7-carboxamide]: in the series on HBV, the EC50 came to 2.3 nM. Besides, the solubility (kinetic) in “Kinetic Solubility” (setting [1]) was 1.1 µM (≈ 0.574 µg/mL); in the series “Kinetic Solubility” (setting [2]) it was 1.5 µM (≈ 0.782 µg/mL).
The matching figures for `Cc1c(C(=O)Nc2ccc(F)cc2)c2n(c1C(=O)C(=O)NC1(c3nncs3)CC1)CCC2` [Example 30, 5-(2-((1-(1,3,4-thiadiazol-2-yl)cyclopropyl)amino)-2-oxoacetyl)-N-(4-fluorophenyl)-6-methyl-2,3-dihydro-1H-pyrrolizine-7-carboxamide]: 30.6 nM, 13 µM (≈ 5.9 µg/mL) and more than 100 µM.
For `CNC(=O)C1(NC(=O)C(=O)c2c(C)c(C(=O)Nc3ccc(F)c(Cl)c3)c3n2CCC3)CC(F)(F)C1` [Example 35], the EC50 in the series with HBV worked out at 14.2 nM. The kinetic solubility was 3.4 µM (≈ 1.74 µg/mL) in “Kinetic Solubility” (setting [1]) and 9.1 µM (≈ 4.65 µg/mL) in “Kinetic Solubility” (setting [2]).
The like results for `Cc1c(C(=O)Nc2ccc(F)c(Cl)c2)c2n(c1C(=O)C(=O)NC1(c3cnn[nH]3)CC(F)(F)C1)CCC2` [Example 16, N-(3-chloro-4-fluorophenyl)-5-(2-((3,3-difluoro-1-(1H-1,2,3-triazol-4-yl)cyclobutyl)amino)-2-oxoacetyl)-6-methyl-2,3-dihydro-1H-pyrrolizine-7-carboxamide] were, in that order, 1.8 nM, 2.8 µM (≈ 1.46 µg/mL) and 16.5 µM (≈ 8.59 µg/mL).
The matching figures for `Cc1c(C(=O)Nc2ccc(F)c(F)c2)c2n(c1C(=O)C(=O)NC1(c3cn(C)nn3)CC(F)(F)C1)CCC2` [Example 6, 5-(2-((3,3-difluoro-1-(1-methyl-1H-1,2,3-triazol-4-yl)cyclobutyl)amino)-2-oxoacetyl)-N-(3,4-difluorophenyl)-6-methyl-2,3-dihydro-1H-pyrrolizine-7-carboxamide]: 14 nM, 44.8 µM (≈ 23.2 µg/mL) and 46.1 µM (≈ 23.9 µg/mL).
The like results for `Cc1c(C(=O)Nc2ccc(F)c(C#N)c2)c2n(c1C(=O)C(=O)NC1(c3cnn[nH]3)CC(F)(F)C1)CCC2` [Example 15, N-(3-cyano-4-fluorophenyl)-5-(2-((3,3-difluoro-1-(1H-1,2,3-triazol-4-yl)cyclobutyl)amino)-2-oxoacetyl)-6-methyl-2,3-dihydro-1H-pyrrolizine-7-carboxamide] were, in that order, 5.2 nM, 13.9 µM (≈ 7.11 µg/mL) and 13.5 µM (≈ 6.9 µg/mL).
On to `Cc1c(C(=O)Nc2ccc(F)c(F)c2)c2n(c1C(=O)C(=O)NC1(CO)CC(F)(F)C1)CCC2` [Example 19, 5-(2-((3,3-difluoro-1-(hydroxymethyl)cyclobutyl)amino)-2-oxoacetyl)-N-(3,4-difluorophenyl)-6-methyl-2,3-dihydro-1H-pyrrolizine-7-carboxamide], for which the EC50 in the series with HBV came to 20.2 nM. The solubility (kinetic) was 62 µM (≈ 29 µg/mL) in the series “Kinetic Solubility” (setting [1]) and 68.7 µM (≈ 32.1 µg/mL) in “Kinetic Solubility” (setting [2]).
Turning to `Cc1c(C(=O)Nc2ccc(F)c(F)c2)c2n(c1C(=O)C(=O)NC1(c3cnn[nH]3)CC(F)(F)C1)[C@@H]1C[C@@H]1C2` [Example 34, (1aR,6aR)-3-(2-((3,3-difluoro-1-(1H-1,2,3-triazol-5-yl)cyclobutyl)amino)-2-oxoacetyl)-N-(3,4-difluorophenyl)-4-methyl-1,1a,6,6a-tetrahydrocyclopropa[a]pyrrolizine-5-carboxamide], the half-maximal effective concentration (EC50) with HBV amounted to 14.4 nM. The kinetic solubility in “Kinetic Solubility” (assay media at pH 1 (composition not named), simulated gastric fluid, pH = 1, read-out: Kinetic Solubility at pH = 1) is 51.7 µM (≈ 26.7 µg/mL); in “Kinetic Solubility” (assay media at pH 7 (composition not named), aqueous buffer, pH = 7, read-out: Kinetic Solubility at pH = 7), 52.3 µM (≈ 27 µg/mL).
Take `Cc1c(C(=O)Nc2ccc(F)c(C(F)F)c2)c2n(c1C(=O)C(=O)NC1(c3nncs3)CC1)CCC2` [Example 31]: in the series with HBV, the EC50 was found to be 16.5 nM. Further, the solubility (kinetic) is 6.3 µM (≈ 3.17 µg/mL) in “Kinetic Solubility” (setting [1]) and 23.1 µM (≈ 11.6 µg/mL) in “Kinetic Solubility” (setting [2]).
The like results for `Cc1c(C(=O)Nc2ccc(F)c(F)c2)c2n(c1C(=O)C(=O)NC1(c3cnn[nH]3)CC(F)(F)C1)[C@H]1C[C@H]1C2` [Example 23, (1aS,6aS)-3-(2-((3,3-difluoro-1-(1H-1,2,3-triazol-5-yl)cyclobutyl)amino)-2-oxoacetyl)-N-(3,4-difluorophenyl)-4-methyl-1,1a,6,6a-tetrahydrocyclopropa[a]pyrrolizine-5-carboxamide] were, in that order, 31.8 nM, 49.4 µM (≈ 25.5 µg/mL) and 62 µM (≈ 32 µg/mL).
The like results for `Cc1c(C(=O)Nc2ccc(F)c(F)c2)c2n(c1C(=O)C(=O)NC1(c3cnn[nH]3)CC(F)(F)C1)C[C@H]1C[C@@H]21` [Example 25, (1aS,6bR)-4-(2-((3,3-difluoro-1-(1H-1,2,3-triazol-5-yl)cyclobutyl)amino)-2-oxoacetyl)-N-(3,4-difluorophenyl)-5-methyl-1,1a,2,6b-tetrahydrocyclopropa[a]pyrrolizine-6-carboxamide] were, in that order, 1.9 nM, 65 µM (≈ 33.6 µg/mL) and 72.6 µM (≈ 37.5 µg/mL).
In the case of `Cc1c(C(=O)Nc2ccc(F)c(C(F)F)c2)c2n(c1C(=O)C(=O)NC1(C(N)=O)CC(F)(F)C1)CCC2` [Example 32, 5-(2-((1-carbamoyl-3,3-difluorocyclobutyl)amino)-2-oxoacetyl)-N-(3-(difluoromethyl)-4-fluorophenyl)-6-methyl-2-dihydro-1H-pyrrolizine-7-carboxamide], the EC50 in the series with HBV was determined as 24.2 nM. For the same compound, the solubility (kinetic) in the series “Kinetic Solubility” (setting [1]) was 89.5 µM (≈ 45.9 µg/mL); in the series “Kinetic Solubility” (setting [2]), 93.1 µM (≈ 47.7 µg/mL).
